Laboratory results: US20220396593A1, “SYNTHESIS AND CHARACTERIZATION OF VANADIUM COMPLEXES” (priority 2021, published 2022)

Assays:
[1] = system: oncolytic RNA viruses including vesicular stomatitis virus (VSV) and Measles; details: cited from earlier work
[2] = Stability of vanadium complexes in water and PBS buffer (NMR, pH over time); details: pH adjusted to 7.4 where needed
[3] = Solubility of vanadium complex solid in water / PBS buffer

Row | Compound | Effect on replication and spread of oncolytic RNA viruses [1] | Stability in solution and need for pH adjustment [2] | further results
1 | O=S(=O)([O-])[O-].[O]=[V+2] [vanadyl sulfate] | improve the replication and spread of oncolytic RNA viruses | – | –
2 | Cc1occc(=O)c1[O-].Cc1occc(=O)c1[O-].[O]=[V+2] [bismaltolatoxovanadate (BMOV), bismaltolatoxovanadate] | improve the replication and spread of oncolytic RNA viruses | – | –
3 | [O]=[V]([O-])([O-])[O-] [orthovanadate] | improve the replication and spread of oncolytic RNA viruses | – | –
4 | K3[(VO2)2(C6H6O7)(C6H5O7)]×3 H2O [CDOS150] | – | the solutions did require initial pH adjustment | pH up to which the solid dissolved ([3]; solid dissolved into water and phosphate buffered saline (PBS) buffer): ≤ 5
5 | Na3[(V^IVO)2(C6H4O7)(C6H5O7)] [CDOS155] | – | limited at pH 7.4 but similar in water or PBS but required continuous pH adjustment | Solubility ([3]; in water): soluble in water; pH up to which the solid dissolved ([3]; solid mixed with PBS buffer): ≤ 5
